Data from PubChem BioAssay (NCI).
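Assay format: 96-well plates, 48-hour exposure. TGI denotes the concentration required for complete inhibition of growth.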

Tests used:
Assay in all cases: NCI tumour cell line growth inhibition, 48 h
786-0 renal = test system: 786-0 renal
A498 renal = test system: A498 renal
A549 NSCLC = test system: A549 NSCLC
ACHN renal = test system: ACHN renal
CAKI-1 renal = test system: CAKI-1 renal
CCRF-CEM leukemia = test system: CCRF-CEM leukemia
COLO 205 colon = test system: COLO 205 colon
DLD-1 colon = test system: DLD-1 colon
DMS 114 small cell lung = test system: DMS 114 small cell lung
DMS 273 small cell lung = test system: DMS 273 small cell lung
EKVX NSCLC = test system: EKVX NSCLC
HCC-2998 colon = test system: HCC-2998 colon
HCT-116 colon = test system: HCT-116 colon
HCT-15 colon = test system: HCT-15 colon
HL-60(TB) leukemia = test system: HL-60(TB) leukemia
HOP-18 NSCLC = test system: HOP-18 NSCLC
HOP-62 NSCLC = test system: HOP-62 NSCLC
HOP-92 NSCLC = test system: HOP-92 NSCLC
HT29 colon = test system: HT29 colon
IGROV1 ovarian = test system: IGROV1 ovarian
K-562 leukemia = test system: K-562 leukemia
KM12 colon = test system: KM12 colon
KM20L2 colon = test system: KM20L2 colon
LXFL 529 NSCLC = test system: LXFL 529 NSCLC
M14 melanoma = test system: M14 melanoma
M19-MEL melanoma = test system: M19-MEL melanoma
MALME-3M melanoma = test system: MALME-3M melanoma
MOLT-4 leukemia = test system: MOLT-4 leukemia
NCI-H226 lung = test system: NCI-H226 lung
NCI-H23 lung = test system: NCI-H23 lung
NCI-H460 lung = test system: NCI-H460 lung
NCI-H522 lung = test system: NCI-H522 lung
OVCAR-3 ovarian = test system: OVCAR-3 ovarian
OVCAR-4 ovarian = test system: OVCAR-4 ovarian
OVCAR-5 ovarian = test system: OVCAR-5 ovarian
OVCAR-8 ovarian = test system: OVCAR-8 ovarian
RPMI-8226 leukemia = test system: RPMI-8226 leukemia
RXF 393 renal = test system: RXF 393 renal
SF-268 CNS = test system: SF-268 CNS
SF-295 CNS = test system: SF-295 CNS
SF-539 CNS = test system: SF-539 CNS
SK-MEL-2 melanoma = test system: SK-MEL-2 melanoma
SK-MEL-28 melanoma = test system: SK-MEL-28 melanoma
SK-MEL-5 melanoma = test system: SK-MEL-5 melanoma
SK-OV-3 ovarian = test system: SK-OV-3 ovarian
SN12C renal = test system: SN12C renal
SNB-19 CNS = test system: SNB-19 CNS
SNB-78 CNS = test system: SNB-78 CNS
SR leukemia = test system: SR leukemia
SW-620 colon = test system: SW-620 colon
TK-10 renal = test system: TK-10 renal
U251 CNS = test system: U251 CNS
UACC-257 melanoma = test system: UACC-257 melanoma
UACC-62 melanoma = test system: UACC-62 melanoma
UO-31 renal = test system: UO-31 renal
XF 498 CNS = test system: XF 498 CNS
LOX IMVI melanoma = test system: LOX IMVI melanoma
SNB-75 CNS = test system: SNB-75 CNS

O=C(Cc1ccccc1)NN1C(=O)C(Cl)C1c1cccc([N+](=O)[O-])c1 (stereo not drawn) was tested, and the TGI (786-0 renal) was over 84.4 µM, the TGI (A498 renal) was over 100 µM and the TGI (A549 NSCLC) was over 100 µM. For the same compound, the TGI (ACHN renal) was over 100 µM, the TGI (CAKI-1 renal) was over 63.8 µM and the TGI (CCRF-CEM leukemia) was 5.97 µM. It also gave a TGI (COLO 205 colon) of over 100 µM, a TGI (DLD-1 colon) of over 100 µM and a TGI (DMS 114 small cell lung) of over 93.4 µM. The TGI (DMS 273 small cell lung) was over 100 µM, the TGI (EKVX NSCLC) was over 100 µM and the TGI (HCC-2998 colon) was over 100 µM. The TGI (HCT-116 colon) was over 84.2 µM, the TGI (HCT-15 colon) was over 100 µM and the TGI (HL-60(TB) leukemia) was 29.5 µM. For the same compound, the TGI (HOP-18 NSCLC) was over 100 µM, the TGI (HOP-62 NSCLC) was over 100 µM and the TGI (HOP-92 NSCLC) was 30.5 µM. It also gave a TGI (HT29 colon) of over 20 µM, a TGI (IGROV1 ovarian) of 19.3 µM and a TGI (K-562 leukemia) of 54 µM. It also gave a TGI (KM12 colon) of over 100 µM, a TGI (KM20L2 colon) of over 100 µM and a TGI (LXFL 529 NSCLC) of 49.7 µM. For the same compound, the TGI (M14 melanoma) was over 100 µM, the TGI (M19-MEL melanoma) was over 37.1 µM and the TGI (MALME-3M melanoma) was over 100 µM. For the same compound, the TGI (MOLT-4 leukemia) was 45 µM, the TGI (NCI-H226 lung) was over 90.1 µM and the TGI (NCI-H23 lung) was over 92.2 µM. It also gave a TGI (NCI-H460 lung) of over 100 µM, a TGI (NCI-H522 lung) of 3.64 µM and a TGI (OVCAR-3 ovarian) of over 86.8 µM. It also gave a TGI (OVCAR-4 ovarian) of over 92.9 µM, a TGI (OVCAR-5 ovarian) of over 100 µM and a TGI (OVCAR-8 ovarian) of over 100 µM. For the same compound, the TGI (RPMI-8226 leukemia) was 47.8 µM, the TGI (RXF 393 renal) was 93 µM and the TGI (SF-268 CNS) was over 100 µM. The TGI (SF-295 CNS) was over 100 µM, the TGI (SF-539 CNS) was over 100 µM and the TGI (SK-MEL-2 melanoma) was over 73.8 µM. For the same compound, the TGI (SK-MEL-28 melanoma) was over 100 µM, the TGI (SK-MEL-5 melanoma) was over 100 µM and the TGI (SK-OV-3 ovarian) was over 100 µM. For the same compound, the TGI (SN12C renal) was over 100 µM, the TGI (SNB-19 CNS) was over 100 µM and the TGI (SNB-78 CNS) was over 100 µM. For the same compound, the TGI (SR leukemia) was 22.1 µM, the TGI (SW-620 colon) was over 89.1 µM and the TGI (TK-10 renal) was over 100 µM. For the same compound, the TGI (U251 CNS) was over 100 µM, the TGI (UACC-257 melanoma) was over 100 µM and the TGI (UACC-62 melanoma) was over 100 µM. The TGI (UO-31 renal) was over 100 µM and the TGI (XF 498 CNS) was over 57.1 µM.
CCC1c2cc3n(c(=O)c2COC1O)Cc1c-3nc2ccccc2c1Cl (stereo not drawn) showed a TGI (786-0 renal) of over 100 µM, a TGI (A498 renal) of over 100 µM and a TGI (A549 NSCLC) of over 100 µM. For the same compound, the TGI (ACHN renal) was over 84 µM, the TGI (CAKI-1 renal) was over 100 µM and the TGI (CCRF-CEM leukemia) was over 100 µM. It also gave a TGI (COLO 205 colon) of over 100 µM, a TGI (DLD-1 colon) of over 100 µM and a TGI (DMS 114 small cell lung) of over 100 µM. For the same compound, the TGI (DMS 273 small cell lung) was over 100 µM, the TGI (EKVX NSCLC) was over 100 µM and the TGI (HCC-2998 colon) was over 100 µM. The TGI (HCT-116 colon) was over 100 µM, the TGI (HCT-15 colon) was over 100 µM and the TGI (HL-60(TB) leukemia) was over 100 µM. For the same compound, the TGI (HOP-18 NSCLC) was over 100 µM, the TGI (HOP-62 NSCLC) was over 100 µM and the TGI (HOP-92 NSCLC) was over 100 µM. The TGI (HT29 colon) was over 100 µM, the TGI (IGROV1 ovarian) was over 100 µM and the TGI (K-562 leukemia) was over 100 µM. The TGI (KM12 colon) was over 100 µM, the TGI (KM20L2 colon) was over 100 µM and the TGI (LOX IMVI melanoma) was over 100 µM. The TGI (LXFL 529 NSCLC) was over 100 µM, the TGI (M14 melanoma) was over 75 µM and the TGI (M19-MEL melanoma) was over 100 µM. The TGI (MALME-3M melanoma) was over 100 µM, the TGI (MOLT-4 leukemia) was over 73 µM and the TGI (NCI-H226 lung) was over 100 µM. It also gave a TGI (NCI-H23 lung) of over 100 µM, a TGI (NCI-H460 lung) of over 100 µM and a TGI (NCI-H522 lung) of over 100 µM. For the same compound, the TGI (OVCAR-3 ovarian) was over 100 µM, the TGI (OVCAR-4 ovarian) was over 100 µM and the TGI (OVCAR-5 ovarian) was over 100 µM. The TGI (OVCAR-8 ovarian) was over 100 µM, the TGI (RPMI-8226 leukemia) was over 100 µM and the TGI (RXF 393 renal) was over 100 µM. It also gave a TGI (SF-268 CNS) of over 100 µM, a TGI (SF-295 CNS) of over 100 µM and a TGI (SF-539 CNS) of over 100 µM. For the same compound, the TGI (SK-MEL-2 melanoma) was over 100 µM, the TGI (SK-MEL-28 melanoma) was over 100 µM and the TGI (SK-MEL-5 melanoma) was over 100 µM. The TGI (SK-OV-3 ovarian) was over 100 µM, the TGI (SN12C renal) was over 100 µM and the TGI (SNB-19 CNS) was over 100 µM. It also gave a TGI (SNB-75 CNS) of over 100 µM, a TGI (SNB-78 CNS) of over 100 µM and a TGI (SW-620 colon) of over 100 µM. The TGI (TK-10 renal) was over 100 µM, the TGI (U251 CNS) was over 100 µM and the TGI (UACC-257 melanoma) was over 100 µM. For the same compound, the TGI (UACC-62 melanoma) was over 100 µM, the TGI (UO-31 renal) was over 100 µM and the TGI (XF 498 CNS) was over 100 µM.
